Measurements taken from ChEMBL document CHEMBL4190311, “Discovery of cycloalkyl-fused N-thiazol-2-yl-benzamides as tissue non-specific glucokinase activators: Design, synthesis, and biological evaluation” (Eur J Med Chem, 2017).
Activity calls are given as the source filed them. The calls are words filed in the database; no cut-off is given here.

Key:
[1] = target: T1, Hexokinase-4 (Homo sapiens, UniProt P35557); assay: Activation of recombinant human liver glucokinase 2 assessed as […] in presence of 5 mM glucose by G6PDH coupled assay
T1 sequence (P35557 whole entry): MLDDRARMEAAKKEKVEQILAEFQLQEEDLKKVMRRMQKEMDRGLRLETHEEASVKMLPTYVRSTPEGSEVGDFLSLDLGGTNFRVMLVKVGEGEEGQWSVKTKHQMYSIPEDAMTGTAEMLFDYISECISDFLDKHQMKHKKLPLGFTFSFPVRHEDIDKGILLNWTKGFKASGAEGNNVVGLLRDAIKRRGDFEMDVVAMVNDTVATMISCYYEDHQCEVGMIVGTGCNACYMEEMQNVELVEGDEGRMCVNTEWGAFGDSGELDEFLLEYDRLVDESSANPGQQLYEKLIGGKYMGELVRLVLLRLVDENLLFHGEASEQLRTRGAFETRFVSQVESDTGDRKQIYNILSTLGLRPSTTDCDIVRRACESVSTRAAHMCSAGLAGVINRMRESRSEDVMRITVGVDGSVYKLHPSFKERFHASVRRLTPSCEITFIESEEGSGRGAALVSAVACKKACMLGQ

[2] = system: Hepatocyte; assay: Increase in glucose uptake in mouse primary hepatocytes assessed as glucose uptake level at 20 uM after 24 hrs by glucose oxidase method relative to control; format: functional
[3] = target: T2, Hexokinase-4 (Rattus norvegicus) (UniProt P17712); assay: Activation of glucokinase in rat INS1(832/13) cells assessed as increase in glucose sensitive insulin secretion at 20 uM after 2 hrs in presence of 5.5 mM glucose by AlphaLISA method relative to control; format: cell-based
T2 sequence (whole entry): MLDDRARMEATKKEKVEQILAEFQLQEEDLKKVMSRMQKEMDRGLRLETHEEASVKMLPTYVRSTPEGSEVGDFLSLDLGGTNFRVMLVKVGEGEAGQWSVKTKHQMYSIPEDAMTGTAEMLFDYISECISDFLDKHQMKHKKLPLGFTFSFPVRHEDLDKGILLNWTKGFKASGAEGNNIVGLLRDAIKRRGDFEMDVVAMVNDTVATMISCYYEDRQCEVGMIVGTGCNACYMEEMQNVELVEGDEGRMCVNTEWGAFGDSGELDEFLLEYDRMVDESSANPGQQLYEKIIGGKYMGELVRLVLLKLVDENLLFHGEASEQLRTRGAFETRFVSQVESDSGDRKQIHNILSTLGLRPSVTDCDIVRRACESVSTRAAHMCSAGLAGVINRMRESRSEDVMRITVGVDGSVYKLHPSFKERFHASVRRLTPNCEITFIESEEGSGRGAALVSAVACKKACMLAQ

[4] = system: INS1(832/13); assay: Cytoprotection in rat INS1(832/13) cells assessed as reduction in streptozocin induced beta cells apoptosis after 20 hrs by MTT based spectrophotometric method; format: functional, cell-based; settings: INS-1 832/13, 20 h
[5] = system: INS1(832/13); assay: Cytoprotection in rat INS1(832/13) cells assessed as reduction in streptozocin induced beta cells apoptosis after 20 hrs by MTT based spectrophotometric method relative to control; format: functional; parameters: scale not given: the % may be the effect or the level left
[6] = target: T1, Hexokinase-4; assay: Activation of recombinant human liver glucokinase 2 assessed as assessed as reduction in Km for glucose in presence of 5 mM glucose by G6PDH coupled assay
[7] = AUC (0 to infinity) in Sprague-Dawley rat at 10 mg/kg, po by LC-MS/MS analysis; format: ADME, organism-based; parameters: dose 10 mg/kg, time infinity, route oral; settings: in vivo
[8] = Half life in Sprague-Dawley rat at 10 mg/kg, po by LC-MS/MS analysis; format: ADME, organism-based; settings: in vivo
[9] = Tmax in Sprague-Dawley rat at 10 mg/kg, po by LC-MS/MS analysis; format: ADME, organism-based; settings: in vivo
[10] = system: Mus musculus; assay: Antidiabetic activity in po dosed db/db mouse BKS.Cg-Dock7m+/+ Leprdb/J assessed as reduction in glucose excursion administered daily for 5 weeks measured up to 120 mins after over night fasting at fourth week by OGTT method; format: functional, organism-based
[11] = system: Mus musculus; assay: Antidiabetic activity in dosed db/db mouse BKS.Cg-Dock7m+/+ Leprdb/J assessed as reduction in glucose AUC level at 30 to 60 mg/kg/day, po for 5 weeks measured up to 120 mins after over night fasting at fourth week during OGTT method; format: functional, organism-based
[12] = system: Mus musculus; assay: Toxicity in db/db mouse BKS.Cg-Dock7m+/+ Leprdb/J assessed as dyslipidemia by measuring effect on cholesterol level at 15 to 60 mg/kg, po administered daily for 5 weeks; format: organism-based; settings: in vivo, 840 h
[13] = system: Mus musculus; assay: Toxicity in db/db mouse BKS.Cg-Dock7m+/+ Leprdb/J assessed as dyslipidemia by measuring effect on high density lipoprotein-cholesterol level at 15 to 60 mg/kg, po administered daily for 5 weeks; format: organism-based; settings: in vivo, 840 h
[14] = system: Mus musculus; assay: Toxicity in db/db mouse BKS.Cg-Dock7m+/+ Leprdb/J assessed as dyslipidemia by measuring effect on low density lipoprotein-cholesterol level at 15 to 60 mg/kg, po administered daily for 5 weeks; format: organism-based; settings: in vivo, 840 h
[15] = system: Mus musculus; assay: Toxicity in C57BL/6J mouse assessed as decrease in fasting blood glucose level at 200 mg/kg, po administered as single dose measured over 6 hrs; format: organism-based; settings: in vivo
[16] = system: Mus musculus; assay: Antidiabetic activity in db/db mouse BKS.Cg-Dock7m+/+ Leprdb/J assessed as reduction in HbA1c level at 15 to 60 mg/kg/day, po for 5 weeks; format: functional, organism-based
[17] = system: Mus musculus; assay: Antidiabetic activity in db/db mouse BKS.Cg-Dock7m+/+ Leprdb/J assessed as reduction in fasting plasma glucose level at 15 to 60 mg/kg/day, po for 5 weeks; format: functional, organism-based

In the case of `COC[C@H](C)Oc1cc(Oc2ccc(C(=O)N3CCC3)cc2)cc(C(=O)Nc2nc3c(s2)CN(C(=O)OC(C)(C)C)CC3)c1`, the EC50 [1] is reported as 160 nM, the Activity [2] is reported as 15% and the fold change (FC) [3] is reported as 2.69. The EC50 [4] was 490 nM, the Activity [5] was 161% and the EC50 [6] was 50 nM. It also gave an AUC(0-inf) [7] of 7580 ng·h/mL, a half-life [8] of 30 min and a Tmax [9] of 34.8 min. For the same molecule, the Activity [10] was “Dose-dependent effect”, the Activity [11] was “Active” and the Activity [12] was “Non-Toxic”. For the same molecule, the Activity [13] was “Non-Toxic”, the Activity [14] was “Non-Toxic” and the Activity [15] was “Non-Toxic”. For the same molecule, the Activity [16] was “Active” and the Activity [17] was “Active”.
